# T1: Solute carrier family 22 member 6 (Homo sapiens, UniProt Q4U2R8)
# T1 sequence (Q4U2R8 whole entry): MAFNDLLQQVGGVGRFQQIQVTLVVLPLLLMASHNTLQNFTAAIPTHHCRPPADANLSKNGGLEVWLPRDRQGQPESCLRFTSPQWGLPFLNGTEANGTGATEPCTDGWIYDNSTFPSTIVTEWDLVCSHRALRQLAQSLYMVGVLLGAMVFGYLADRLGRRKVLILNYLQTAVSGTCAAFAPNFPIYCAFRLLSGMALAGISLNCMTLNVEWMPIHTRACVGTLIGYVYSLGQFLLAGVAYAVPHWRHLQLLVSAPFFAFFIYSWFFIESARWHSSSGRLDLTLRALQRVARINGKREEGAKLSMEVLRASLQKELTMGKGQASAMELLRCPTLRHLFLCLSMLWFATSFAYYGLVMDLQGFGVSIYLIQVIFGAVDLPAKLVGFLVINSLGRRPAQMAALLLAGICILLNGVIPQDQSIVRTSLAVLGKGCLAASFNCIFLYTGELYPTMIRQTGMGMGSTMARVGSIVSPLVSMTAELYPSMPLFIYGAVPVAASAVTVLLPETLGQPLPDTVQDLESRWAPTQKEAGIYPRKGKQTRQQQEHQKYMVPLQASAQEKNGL
# B1: Solute carrier family 22 member 6 (Homo sapiens) (protein)
# chain: T1 sequence (Q4U2R8 whole entry)
# Legend:
# [1] = molecular target: T1, Solute carrier family 22 member 6; experiment: TP_TRANSPORTER: inhibition of Urate uptake (Urate: 300 uM, alpha-KG: 2000 uM) in OAT1-expressing S2 cells; format: functional, cell-based; set-up: scale not given: the % may be the effect or the level left; settings: s2, 2000 µM
# [2] = substrate: O=c1[nH]c(=O)c2[nH]c(=O)[nH]c2[nH]1; experiment: TP_TRANSPORTER: uptake in OAT1-expressing S2 cells; format: functional, cell-based
Molecule,Activity [1] [%],Km [2] [µM]
O=C(O)CCC(=O)C(=O)O [ALPHA-KETOGLUTARIC ACID],12.4,–
B1,–,947
